Source: PubChem BioAssay AID1259411 (Chemical Carcinogenesis Research Information System (CCRIS), 2018)
Active and inactive are the calls of the source. The rule behind the calls is not given here.

Test system: rodent carcinogenicity bioassays, tumor incidence
Experiment: CCRIS carcinogenicity studies
How it was run: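 Archive of carcinogenicity, mutagenicity, tumor promotion and tumor inhibition results drawn from journals, NCI reports and other sources, expert-reviewed; covers 1985-2011 and is no longer updated.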

## O=Cc1ccc(CCl)o1
Species: MOUSE, Strain/Sex: B6C3F1/MALE, Route: INTRAPERITONEAL, Dose: 0, 0.1, 0.25 UMOL/G IN 5 µL DMSO/G BW ONCE (STUDY DURATION: 10 MO), Dose: 0, 0.1, 0.25 UMOL/G IN 5 µL DMSO/G BW ONCE (STUDY DURATION: 10 MO), Tumor Site: Type of Lesion: LIVER: TUMOR
  carcinogen call: active; positive

## Cc1ccc([N+]#N)cc1
Species: MOUSE, Strain/Sex: SWISS/FEMALE, Route: SUBCUTANEOUS, Dose: 0, 50 UG/G 1/WK FOR 16 OR 19 WK (STUDY DURATION: 140 WK), Tumor Site: Type of Lesion: SUBCUTANEOUS TISSUE: TUMOR, SKIN: TUMOR
  carcinogen call: active; positive
Species: MOUSE, Strain/Sex: SWISS/MALE, Route: SUBCUTANEOUS, Dose: 0, 50 UG/G 1/WK FOR 16 OR 19 WK (STUDY DURATION: 140 WK), Tumor Site: Type of Lesion: SUBCUTANEOUS TISSUE: TUMOR
  carcinogen call: active; positive

## CC1CC(C)(C)CC(OOC(C)(C)C)(OOC(C)(C)C)C1 (stereo unspecified)
Species: MOUSE, Strain/Sex: B6C3F1/FEMALE, Route: ORAL, Dose: 0, 0.25, 0.5% IN DIET FOR 78 WK (STUDY DURATION: 83 WK), Dose: 0, 0.25, 0.5% IN DIET FOR 78 WK (STUDY DURATION: 83 WK)
  carcinogen call: inactive; negative
Species: MOUSE, Strain/Sex: B6C3F1/MALE, Route: ORAL, Dose: 0, 0.25, 0.5% IN DIET FOR 78 WK (STUDY DURATION: 83 WK), Dose: 0, 0.25, 0.5% IN DIET FOR 78 WK (STUDY DURATION: 83 WK)
  carcinogen call: inactive; negative

## CC(O)CNC(=O)N(CCCl)N=O (stereo unspecified)
Species: RAT, Strain/Sex: F344/FEMALE, Route: ORAL, Dose: 0, 18 MG/L IN DRINKING WATER 5 D/WK FOR 30 WK (STUDY DURATION: LIFETIME)
  carcinogen call: inactive; negative
Species: RAT, Strain/Sex: F344/MALE, Route: ORAL, Dose: 0, 18 MG/L IN DRINKING WATER 5 D/WK FOR 30 WK (STUDY DURATION: LIFETIME), Tumor Site: Type of Lesion: LIVER: TUMOR, LUNG: TUMOR
  carcinogen call: active; positive

## O=c1[nH]c(=O)n([C@H]2C[C@H](O)[C@@H](CO)O2)cc1Br
Species: RAT, Strain/Sex: LIO/FEMALE, Route: SUBCUTANEOUS, Dose: 0, 3.2 MG ON DAY 1 OR ON DAYS 1 AND 3 OR ON DAYS 1, 3, 7, AND 21 FOLLOWING BIRTH FOR TOTAL DOSES OF 3.2, 6.4, OR 12.8 MG, Tumor Site: Type of Lesion: THYROID: ADENOMA, KIDNEY: MESENCHYMAL TUMORS
  carcinogen call: active; positive
Species: RAT, Strain/Sex: LIO/MALE, Route: SUBCUTANEOUS, Dose: 0, 3.2 MG ON DAY 1 OR ON DAYS 1 AND 3 OR ON DAYS 1, 3, 7, AND 21 FOLLOWING BIRTH FOR TOTAL DOSES OF 3.2, 6.4, OR 12.8 MG, Tumor Site: Type of Lesion: TESTES: LEYDIGOMA
  carcinogen call: active; positive

## CC1=CC(=O)CC(C)(C)C1
Species: MOUSE, Strain/Sex: B6C3F1/FEMALE, Route: GAVAGE, Dose: 0, 250, 500 MG/KG IN CORN OIL 5 D/WK FOR 103 WK (STUDY DURATION: 105 WK), Dose: 0, 250, 500 MG/KG IN CORN OIL 5 D/WK FOR 103 WK (STUDY DURATION: 105 WK)
  carcinogen call: inactive; negative
Species: MOUSE, Strain/Sex: B6C3F1/MALE, Route: GAVAGE, Dose: 0, 250, 500 MG/KG IN CORN OIL 5 D/WK FOR 103 WK (STUDY DURATION: 105 WK), Dose: 0, 250, 500 MG/KG IN CORN OIL 5 D/WK FOR 103 WK (STUDY DURATION: 105 WK), Tumor Site: Type of Lesion: LIVER: HEPATOCELLULAR ADENOMA OR CARCINOMA, INTEGUMENTARY SYSTEM: MESENCHYMAL TUMOR, HEMATOPOIETIC SYSTEM: MALIGNANT LYM, Tumor Site: Type of Lesion: LIVER: HEPATOCELLULAR ADENOMA OR CARCINOMA, INTEGUMENTARY SYSTEM: MESENCHYMAL TUMOR, HEMATOPOIETIC SYSTEM: MALIGNANT LYM
  carcinogen call: equivocal
Species: RAT, Strain/Sex: F344/FEMALE, Route: GAVAGE, Dose: 0, 250, 500 MG/KG IN CORN OIL 5 D/WK FOR 103 WK (STUDY DURATION: 105 WK), Dose: 0, 250, 500 MG/KG IN CORN OIL 5 D/WK FOR 103 WK (STUDY DURATION: 105 WK)
  carcinogen call: inactive; negative
Species: RAT, Strain/Sex: F344/MALE, Route: GAVAGE, Dose: 0, 250, 500 MG/KG IN CORN OIL 5 D/WK FOR 103 WK (STUDY DURATION: 105 WK), Dose: 0, 250, 500 MG/KG IN CORN OIL 5 D/WK FOR 103 WK (STUDY DURATION: 105 WK), Tumor Site: Type of Lesion: PREPUTIAL GLAND: CARCINOMA, KIDNEY: TUBULAR CELL ADENOMA OR ADENOCARCINOMA, PANCREAS: ACINAR CELL ADENOMA, Tumor Site: Type of Lesion: PREPUTIAL GLAND: CARCINOMA, KIDNEY: TUBULAR CELL ADENOMA OR ADENOCARCINOMA, PANCREAS: ACINAR CELL ADENOMA
  carcinogen call: active; positive

## Cc1ccc2c(c1)C1=Nc3ccccc3C3=Nc4ccccc4C(=N2)N31
Species: MOUSE, Strain/Sex: ALBINO/MALE, FEMALE, Route: DERMAL, Tumor Site: Type of Lesion: SKIN: TUMOR
  carcinogen call: active; positive

## CCCCNC(=O)OCC#CI
Species: Mouse, Strain/Sex: CD-1/Female (50/Group), Route: Oral, Dose: 0, 20, 50, 150 mg/kg/day of 97% 3-iodo-2-propynyl butyl carbamate in diet for 78 wk, study duration 78 wk, Dose: 0, 20, 50, 150 mg/kg/day of 97% 3-iodo-2-propynyl butyl carbamate in diet for 78 wk, study duration 78 wk
  carcinogen call: inactive; negative
Species: Mouse, Strain/Sex: CD-1/Male (50/Group), Route: Oral, Dose: 0, 20, 50, 150 mg/kg/day of 97% 3-iodo-2-propynyl butyl carbamate in diet for 78 wk, study duration 78 wk, Dose: 0, 20, 50, 150 mg/kg/day of 97% 3-iodo-2-propynyl butyl carbamate in diet for 78 wk, study duration 78 wk
  carcinogen call: inactive; negative
Species: Rat, Strain/Sex: Sprague-Dawley/Female (50/group), Route: Oral, Dose: 0, 20, 40, 80 mg/kg/day of 97% 3-iodo-2-propynyl butyl carbamate in diet for 104 wk, study duration 104 wk, Dose: 0, 20, 40, 80 mg/kg/day of 97% 3-iodo-2-propynyl butyl carbamate in diet for 104 wk, study duration 104 wk
  carcinogen call: inactive; negative
Species: Rat, Strain/Sex: Sprague-Dawley/Male (50/group), Route: Oral, Dose: 0, 20, 40, 80 mg/kg/day of 97% 3-iodo-2-propynyl butyl carbamate in diet for 104 wk, study duration 104 wk, Dose: 0, 20, 40, 80 mg/kg/day of 97% 3-iodo-2-propynyl butyl carbamate in diet for 104 wk, study duration 104 wk
  carcinogen call: inactive; negative

## CN(C)[C@@H]1C(=O)C(C(N)=O)=C(O)[C@@]2(O)C(=O)C3=C(O)c4c(O)cccc4[C@@](C)(O)[C@H]3C[C@@H]12
Species: MOUSE, Strain/Sex: B6C3F1/FEMALE, Route: GAVAGE, Dose: 0, 12500, 25000 PPM IN FEED FOR 103 WK (STUDY DURATION: 104 WK), Dose: 0, 12500, 25000 PPM IN FEED FOR 103 WK (STUDY DURATION: 104 WK)
  carcinogen call: inactive; negative
Species: MOUSE, Strain/Sex: B6C3F1/FEMALE, Route: ORAL, Dose: 0, 12500, 25000 PPM IN DIET FOR 103 WK (STUDY DURATION: 103 WK), Dose: 0, 12500, 25000 PPM IN DIET FOR 103 WK (STUDY DURATION: 103 WK)
  carcinogen call: inactive; negative
Species: MOUSE, Strain/Sex: B6C3F1/MALE, Route: ORAL, Dose: 0, 12500, 25000 PPM IN DIET FOR 103 WK (STUDY DURATION: 103 WK), Dose: 0, 12500, 25000 PPM IN DIET FOR 103 WK (STUDY DURATION: 103 WK)
  carcinogen call: inactive; negative
Species: MOUSE, Strain/Sex: B6C3F1/MALE, Route: ORAL, Dose: 0, 12500, 25000 PPM IN FEED FOR 103 WK (STUDY DURATION: 104 WK), Dose: 0, 12500, 25000 PPM IN FEED FOR 103 WK (STUDY DURATION: 104 WK)
  carcinogen call: inactive; negative
Species: RAT, Strain/Sex: F344/FEMALE, Route: ORAL, Dose: 0, 12500, 25000 PPM IN DIET FOR 103 WK (STUDY DURATION: 103 WK), Dose: 0, 12500, 25000 PPM IN DIET FOR 103 WK (STUDY DURATION: 103 WK)
  carcinogen call: inactive; negative
Species: RAT, Strain/Sex: F344/FEMALE, Route: ORAL, Dose: 0, 12500, 25000 PPM IN FEED FOR 103 WK (STUDY DURATION: 104 WK), Dose: 0, 12500, 25000 PPM IN FEED FOR 103 WK (STUDY DURATION: 104 WK)
  carcinogen call: inactive; negative
Species: RAT, Strain/Sex: F344/MALE, Route: ORAL, Dose: 0, 12500, 25000 PPM IN DIET FOR 103 WK (STUDY DURATION: 103 WK), Dose: 0, 12500, 25000 PPM IN DIET FOR 103 WK (STUDY DURATION: 103 WK)
  carcinogen call: inactive; negative
Species: RAT, Strain/Sex: F344/MALE, Route: ORAL, Dose: 0, 12500, 25000 PPM IN FEED FOR 103 WK (STUDY DURATION: 104 WK), Dose: 0, 12500, 25000 PPM IN FEED FOR 103 WK (STUDY DURATION: 104 WK)
  carcinogen call: inactive; negative
